Laboratory results taken from patent US20230272012A1, “PEPTIDES AND METHODS OF USE” (REALTA LIFE SCIENCES, INC., priority 2020, published 2023).
Entries after “also recorded” stand apart in the source; their conditions may differ. Bridge positions count the residues as written; N and C are the ends. Square brackets hold non-standard residues; d marks the D form. Ends that are not written are not given here. Peptide text beside a SMILES is read from it. S5 = C=CCCC[C@](C)(N)C(=O)O; Sar = CNCC(=O)O

How the values were obtained:
complement activity = assay: Hemolytic assay of plasma after IV infusion into rats; format: in vivo, rat; settings: IV in Wistar rats; early time points at the highest dose
Procedure: Male Wistar rats with indwelling jugular catheters were administered PA-0117, -0127, -0130, and -0133 with groups of three animals receiving 20, 200 and 400 mg/kg of the compound as a single, bolus, IV infusion. A control group of rats received an infusion of saline IV. At various time points after infusion (0.5, 2, 5, 20, 60, 120, 240, 480, 1440 minute) an aliquot of blood was drawn and plasma isolated and frozen at −70° C. pending analysis. Animals were sacrificed after the terminal blood draw and a gross necropsy performed.
PA-0117 could not be analyzed as no functional complement activity was obtained from the plasma samples. […] PA-0117 was analyzed in a C1q target acquisition assay (C1q binding assay) as described in Example 1 (FIG. 9). […] PA-0127 and -0130 levels were determined by coating the plate with the plasma samples and directly detecting the peptides by rabbit antibody raised against PA-0020 (peptide sequence […]; SEQ ID NO: 57) (FIGS. 10B and 11B). […] PA-0133 could not be detected by the available antibodies.

human neutrophils = assay: NETosis assay (free DNA, PicoGreen); format: cell-based; settings: peptide 2 mM; neutrophils stimulated with PMA and H2O2
Procedure: Free DNA as a marker for NET formation was measured by PicoGreen as previously described. Briefly, 2.0×10^6 human neutrophils in 96-well plates were stimulated with 12 nM PMA and 0.05% H2O2 in RPMI with or without the indicated peptide variants (2 mM) for 2.5 hr in a 37° C. humified incubator supplemented with 5% CO2, allowing NETosis to occur. Neutrophils in RPMI alone served as a negative control. Fifty units of […] (Fisher) were added to each well to allow for digestion of released extracellular DNA for 10 min at 37° C. The preparation was then aliquoted into an adjacent well and mixed 1:1 with prepared PICO green reagent (Fisher). The fluorescence was then quantified on a BioTek microplate reader at excitation 485 nm/emission 528 nm.

[1] = ABO incompatibility hemolytic assay of complement activity (CH50-type); format: cell-based, human; settings: peptide 0.8 mg/ml (~0.5 mM); read-out: decrease of ABO hemolysis compared to PA-I8Sar
Procedure: FIG. 1A-1B show PIC1 peptides' inhibition of complement activation in an ABO incompatibility assay. […] Inhibition of ABO incompatibility hemolysis in a CH50-type assay. Peptides are at a final concentration of 0.5 mM. Values are represented as a percent of the positive control, which consists of human O sera and AB red blood cells in GVBS^++ buffer. Data are the means of n=3 independent experiments±SEM.
For hemolytic complement assays, human red blood cells (RBCs) from type AB donors were purified, washed, and standardized to 1.0×10^9 cells/ml, as previously described. Human sera from type O donors at a 15% final concentration was combined with 0.5 mM of the peptides and the volume was brought up to 0.2 ml with GVBS^++ and 5.0×10^7 RBCs. The samples were incubated for 1 hour at 37° C. and then spun at 3,000 rpm for 5 minutes and the supernatant was collected and read at 412 nm. Values are represented as a percent of the positive control, which consists of human O sera and AB red blood cells in GVBS^++ buffer.
To assess the extent to which the peptide variants inhibit antibody-initiated complement activation, an ABO incompatibility ex vivo assay was utilized in which purified erythrocytes from a ‘type AB+’ donor are incubated with sera from a ‘type O’ subject containing anti-A and anti-B antibodies. Peptides were tested at a concentration of 0.8 mg/ml (˜0.5 mM). […] D-amino acid variants PA-0127 and PA-0133 decreased ABO hemolysis by 20% (P value=0.083) and 25% (P value=0.076), respectively. […]

C1q = biological target: T1, C1q (Homo sapiens, UniProt P02745+P02746+P02747); assay: C1q binding ELISA-type assay; settings: half-maximal binding from binding curves
T1 construct: purchased Complement Technology (Tyler, Tex.)
Procedure: The C1q binding assay was performed as previously described. Briefly, an Immunlon-2 HB ELISA plate was coated with 1 μg/ml C1q in bicarbonate buffer overnight at 4° C. The plates were washed with PBS-T (phosphate buffered saline+0.1% Tween) and then blocked with 1% gelatin/PBS for 2 hours at room temperature. After washing, the plates were incubated with the peptides starting at 2.5 mg/ml and then serially diluted in 1% gelatin/PBS for 1 hour at room temperature followed by washing. Plates were then probed with rabbit antibody raised against the lead peptide […] (SEQ ID NO: 2) that lacked PEGylation at 1:1000 in 1% gelatin/PBS for 1 hour at room temperature followed by a goat anti-rabbit HRP (Sigma Aldrich, St Louis, Mo.) at 1:1,000 in 1% gelatin/PBS for 1 hour at room temperature with a washing step in between. After addition of TMB substrate solution to the wells, the reaction was stopped using 1N H2SO4, and the plate read on a BioTek Synergy HT plate reader at 450 nm.
The astrovirus capsid protein and the PIC1 molecules derived from it inhibit classical complement pathway activation by binding to the pattern recognition molecule C1q. The inventors next tested peptide variant binding to C1q in an ELISA-type assay in which C1q is used as the capture substrate and bound peptide detected with a rabbit polyclonal antibody against the peptide portion of PA-dPEG24 ([…]-d24; SEQ ID NO: 3). Binding curves were derived for the stapled and D-amino acid peptides based on the PA-I8Sar and PA-C9Sar (FIG. 6A-6D) backbone, from which half-maximal binding concentrations were calculated (FIGS. 2A and B, respectively). […] For the D-amino acid variants, all peptides in which C1q binding was detected, had variable but increased binding to C1q compared to PA-I8Sar (FIG. 2A). For the peptides based on the PA-C9Sar backbone, with the exception of PA-0148, C1q was bound to the same degree or greater than the parent peptide (FIG. 2B).
The inventors also assessed the ability of RLS-0127* and RLS-0133* to inhibit MPO activity as determined by inhibition of oxidation of TMB in a plate-based assay. […] Additionally, the inventors assessed the ability of RLS-0127* and RLS-0133* to bind C1q in a plate-based assay in which C1q is coated on the plate and increasing amounts of the peptides are added, followed by primary antibody to the peptides and secondary antibody conjugated to HRP. The plate was then incubated with TMB to give a […] signal that is detected at a wavelength of 450 nm in a plate reader.

T1 sequence (P02745 23-245): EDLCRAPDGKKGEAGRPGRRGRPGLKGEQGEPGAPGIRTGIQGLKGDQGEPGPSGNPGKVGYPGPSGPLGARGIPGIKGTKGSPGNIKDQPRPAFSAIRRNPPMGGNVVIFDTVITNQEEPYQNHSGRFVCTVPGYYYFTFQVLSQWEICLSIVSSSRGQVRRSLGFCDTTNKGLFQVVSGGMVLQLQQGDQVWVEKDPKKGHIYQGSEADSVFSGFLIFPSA
T1 sequence (P02746 28-253): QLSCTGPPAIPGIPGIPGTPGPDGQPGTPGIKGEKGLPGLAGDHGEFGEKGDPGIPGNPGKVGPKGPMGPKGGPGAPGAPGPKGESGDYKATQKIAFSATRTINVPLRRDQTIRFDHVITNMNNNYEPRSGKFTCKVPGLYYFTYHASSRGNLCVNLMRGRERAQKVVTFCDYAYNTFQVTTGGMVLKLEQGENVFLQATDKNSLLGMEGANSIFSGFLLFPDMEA
T1 sequence (P02747 29-245): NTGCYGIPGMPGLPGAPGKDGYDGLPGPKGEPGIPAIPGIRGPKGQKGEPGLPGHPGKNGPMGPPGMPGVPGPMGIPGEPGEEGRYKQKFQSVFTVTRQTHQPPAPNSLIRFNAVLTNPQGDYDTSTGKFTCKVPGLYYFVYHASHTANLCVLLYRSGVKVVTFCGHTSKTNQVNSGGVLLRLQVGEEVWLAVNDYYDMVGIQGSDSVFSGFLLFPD

Compound	inhibition of complement activity in the hemolytic assay of rat plasma (complement activity)	reduction of free DNA (marker of NETosis) (human neutrophils)	decrease in ABO hemolysis compared to reference peptide [1]	binding to C1q compared with PA-I8Sar (C1q)
CC[C@H](C)[C@H](N)C(=O)N[C@@H](C)C(=O)N[C@@H](CC(C)C)C(=O)N[C@H](C(=O)N[C@@H](CC(C)C)C(=O)N[C@@H](CCC(=O)O)C(=O)N1CCC[C@H]1C(=O)N(C)CC(=O)N[C@@H](CS)C(=O)N[C@@H](CS)C(=O)N[C@@H](CCC(N)=O)C(=O)N[C@@H](CCC(=O)O)C(=O)N[C@@H](CCCNC(=N)N)C(=O)N[C@@H](C)C(=O)N[C@H](C)C(=O)O)[C@@H](C)CC [PA-0133, IALILEP(Sar)CCQERAdA] (HELM PEPTIDE1{I.A.L.I.L.E.P.[Sar].C.C.Q.E.R.A.[dA]}$$$$V2.0)	inhibition of complement activity	reduction in free DNA similar to that of the PA-I8Sar control; also recorded: ability to inhibit NET formation	25%	–
IALILS5P(Sar)CS5QERAA (IALIL[S5]P[Sar]C[S5]QERAA; staple 6-10) [PA-0119]	–	–	–	markedly increased binding to C1q
